The record followed here is PMC6268357, “Synthesis and Biological Evaluation of New Ligustrazine Derivatives as Anti-Tumor Agents” (Molecules, 2012).

In brackets after ≈: the same amount, converted by molar mass. Entries after “also recorded” stand apart in the source; their conditions may differ. A value given as a limit tells only on which side of the number the result lay.

For series [1], the system named is Bel-7402 human cancer cell line. The series is described as follows: MTT anti-proliferation assay, Bel-7402. It counts as cell-based. The note with it: Homo sapiens, Bel-7402; MTT, 96 h exposure; maximal tested concentration 10.0 ig/mL; read-out: IC50 Bel 7402. The procedure: (§1) The cytotoxicities of these compounds were tested on five cancer cell lines by the standard MTT assay. […] The growing tumor cells at a density 10^4 cells/mL were exposed to various concentrations of the tested drugs and incubated in a 96-well microtiter plate for 96 h (37 °C, 5% CO2). After MTT solution (20 μL, 5 mg/mL) was added to each well, the plate was incubated for a further 4 h. Then the media was removed. Formazan crystals were dissolved with DMSO (150 μL). After mixing well, the absorbance was quantified at 570 nm with a BIORAD 550 spectrophotometer. Wells containing no drugs were used as blanks. […] Tumor cell growth inhibitory rate was calculated in the following equation (1): [drawing 3] (1)

Series [2] relates to A-549 human cancer cell line. The experiment in a line: MTT anti-proliferation assay, A549. The settings on record: Homo sapiens, A549; MTT, 96 h exposure; maximal tested concentration 10.0 ig/mL; read-out: IC50 A549. It counts as cell-based. The procedure: as §1
The test system of series [3] is HCT-8 human cancer cell line. The series is described as follows: MTT anti-proliferation assay, HCT-8. The note with it: Homo sapiens, HCT-8; MTT, 96 h exposure; maximal tested concentration 10.0 ig/mL; read-out: IC50 HCT-8. It counts as cell-based. The procedure:
as §1

Series [4] has as its system BGC-823 human cancer cell line. The experiment in a line: MTT anti-proliferation assay, BGC-823. It counts as cell-based. The settings on record: Homo sapiens, BGC-823; MTT, 96 h exposure; maximal tested concentration 10.0 ig/mL; read-out: IC50 BGC-823. As for the experimental part: as §1
On the technique in general: Formazan colour is commonly taken as a measure of viable cells.

Series [5] concerns A2780 human cancer cell line. The series is described as follows: MTT anti-proliferation assay, A2780. The note with it: Homo sapiens, A2780; MTT, 96 h exposure; maximal tested concentration 10.0 ig/mL; read-out: IC50 A2780. It counts as cell-based. As for the experimental part:
as §1

Series [6] has as its system chick chorioallantoic membrane (CAM). The experiment in a line: Chick chorioallantoic membrane (CAM) angiogenesis assay. The note with it: for Number of microvessels on CAM, treatment (mean ± s): n = 6, implanted day 7, read day 11, microvessels 1 to 100 μm in diameter. It counts as in vivo, White Leghorn chicken. The procedure:
Fertilized White Leghorn chicken eggs, provided by the Chinese Academy of Agricultural Sciences, were placed in an incubator as soon as embryogenesis started and were kept under constant humidity of 65% at 37 °C. On day 7, a square window was opened on the shell and physiological saline (0.1 mL) was injected in to detach the shell membrane. Then gelatin sponges carrying the TMP stimulator derivatives at 10 μg/egg and 40 μg/egg were implanted, respectively. The control group was treated with physiological saline. The windows were sealed with medical adhesive tape and the incubation went on till the experiment day. The above steps were performed under sterile conditions. On the 11th day, the tapes were removed and the entire CAM was detached after tissue fixation with methanol/acetone (1:1, v/v). Then we used computer-assisted image tracking to obtain absolute values for the number of microvessels which were 1 to 100 μm in diameter. Data were analyzed using the t-test option of the of Statistics Analysis System, the values were expressed as mean ± s of 6 observations and P < 0.05 was considered significant.

Series [7] is described as follows: Acute toxicity by oral administration in mice. It counts as in vivo. The settings on record: both sexes, Kunming, mouse, in vivo, 3 g/kg, oral administration. The procedure: (§2) Kunming mice (Beijing Vital River Laboratory Animal Technology Company Limited, China) of both sexes, weighing 18–22 g, were divided into […] matched in weight and size. The mice were placed in cages and kept under standard environmental conditions with a standard rodent diet and water ad libitum under a 12 h light-dark cycle. They were deprived of food for 24 h but allowed free access to tap water throughout the experiments. This research was carried out in accordance with the “Regulation for the Administration of Affairs Concerning Experimental Animals” (State Council of China, 1988).
(§3) The maximum suspended dose (75 mg/mL) of 5 was prepared in bean oil solution, then one group of 20 mice of both sexes were administered the maximum tolerated dose (0.4 mL/10 g) by oral administration. The other 20 mice, the control group, were gave bean oil (0.4 mL/10 g) via gavage.The general behavior of the mice was observed continuously for 1 h after the treatment and then intermittently for 4 h, and thereafter over a period of 24 h. The mice were further observed for up to 14 days following treatment for any signs of toxicity and deaths, and the latency of death. Behavioral, toxic effects and mortality response were recorded.

The next series deals with Kunming mice. The series is described as follows: Acute toxicity by oral administration in mice. It counts as in vivo. The settings on record: oral (gavage) 3 g/kg in bean oil, observed two weeks. As for the experimental part: as §2, §3

In general, IC50 refers to the concentration at which inhibition is half-maximal. As a reminder, the LD50 is the dose at which mortality reaches 50%. A lower LD50 goes with a more toxic substance. For `Cc1nc(C)c(COC(=O)CC[C@@H](C)C2CCC3C4CCC5C[C@H](O)CCC5(C)C4C[C@H](O)C32C)nc1C` (stereo partly drawn) [Compound 5, 3 α,12α-Dihydroxy-5β-dholanic acid-3,5,6-trimethylpyrazin-2-methyl ester], the IC50 was 8.01 µg/mL (≈ 15.2 µM) in series [1]; 6.69 µg/mL (≈ 12.7 µM) in series [2]; 7.43 µg/mL (≈ 14.1 µM) in series [3]; 6.66 µg/mL (≈ 12.6 µM) in series [4]; 6.62 µg/mL (≈ 12.6 µM) in series [5]. The “Number of microvessels on CAM, treatment (mean ± s)” value in series [6] (dose 10 μg/egg) was determined as 4.8 ± 3.71; in series [6] (dose 40 μg/egg), 7.5 ± 3.40. The “Anti-angiogenesis effect on CAM (in words)” value in series [6] (doses of 10 μg/egg and 40 μg/egg) is given as “dramatically block the growth of new vessels”. This compound also gave an LD50 at 14 days in series [7] of over 3000 mg/kg. Further, the MTD at 14 days in series [7] (read-out: Maximum tolerated dose) came to 3000 mg/kg. For the same compound, in the series with Kunming mice, the “Deaths or signs of toxicity” value is reported as “no deaths or signs of toxicity observed; also recorded: no toxicity”.
